Measurements: patent US6770599B2, “Tetrazole derivatives” (Bayer CropScience KK, priority 2000, dated 2004)

Experiments:
[1] = test system: Lindernia pyridaria (flasepimpernel); assay: Test Example 5: synergistic action by water surface application, LIDPY; format: in vivo; conditions: 75 g a.i./ha, run6, 4 weeks after application
Text: (§1) Test for Synergistic Action by Water Sureface Application
(§2) In a greenhouse, paddy soil was filled in pots (250 cm^2), and seeds of weed (barnyardgrass, bulrush, monochoria, falsepimpemel, indian toothcup, waterwort and flatstage) were inoculated in the surface layer of the soil in the pots under wet conditions and covered with soil. All of the weed species were individually inoculated in each pot. Each pot was watered to 2 cm in depth and the depth was kept during the test period. When the weeds grew up to 1.5-2.2 leaf stage (or pair), a predetermined amount of the compound as a testing solution prepared in the same manner as the above-mentioned Test Example 4 was applied to the pots by water surface treatment method. The herbicidal effect was evaluated at 4 weeks after the application on the same scale as in thetest method of Test Example 4.
(§3) Synergistic action of Test Example 4 and Test Example 5 were evaluated by Colby's equation. [formula]
(§4) E: expected herbicidal activity at p+q g/ha
(§5) X: the percentage of herbicidal activity at p g/ha
(§6) Y: the percentage of herbicidal activity at q g/ha

[2] = test system: Rotala indica (indian toothcup); assay: Test Example 5: synergistic action by water surface application, ROTIN; format: in vivo; conditions: 75 g a.i./ha, run6, 4 weeks after application
Text: as §1, §2, §3, §4, §5, §6

Row | SMILES | melting point [°C] | Herbicidal efficacy, known herbicide [1] [%] | Herbicidal efficacy, known herbicide [2] [%]
1 | CCn1nnnc1SCc1c(S(C)(=O)=O)ccc(C(=O)C2C(=O)CCCC2=O)c1Cl | 67 to 71 | – | –
2 | Cn1nnnc1SCc1c(S(C)(=O)=O)ccc(C(=O)C2=C(Sc3ccccc3)CCCC2=O)c1Cl | 76 to 87 | – | –
3 | CCC1(CC2(c3cccc(Cl)c3)CO2)C(=O)c2ccccc2C1=O (racemic) [G, (RS)-2-[2-(3-chlorophenyl)2,3-epoxypropyl]-2-ethylindan-1,3-dione] | – | 60 | 60
